Test results taken from patent US8614206B2 (Genentech, Inc., priority 2011, dated 2013).

These compounds were tested against PIM1 (Homo sapiens (Human), UniProt P11309) (assay: Pim kinase inhibition, PIM1 LC3K (Example 901)).
Format: biochemical
Source text: Determination of the Pim kinase activity of a Formula I compound is possible by a number of direct and indirect detection methods.

Chain of PIM1 (P11309 whole entry): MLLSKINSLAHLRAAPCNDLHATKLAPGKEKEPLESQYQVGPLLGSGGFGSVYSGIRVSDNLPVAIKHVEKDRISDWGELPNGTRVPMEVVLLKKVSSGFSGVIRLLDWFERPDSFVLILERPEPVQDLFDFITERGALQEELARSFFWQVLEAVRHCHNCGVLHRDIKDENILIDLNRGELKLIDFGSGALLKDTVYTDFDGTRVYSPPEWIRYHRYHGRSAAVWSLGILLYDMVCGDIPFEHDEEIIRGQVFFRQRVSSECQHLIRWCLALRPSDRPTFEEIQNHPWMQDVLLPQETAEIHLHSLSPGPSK

For `Cn1ncc(NC(=O)c2nc(-c3ccccc3F)ccc2N)c1N1CC[C@H](N)CC(F)(F)C1` (stereo in doubt) [Example 249, 3-amino-N-(5-(5-amino-3,3-difluoroazepan-1-yl)-1-methyl-1H-pyrazol-4-yl)-6-(2-fluorophenyl)picolinamide], which Ki is on record?
The Ki was 0.02 nM.

`Cn1ncc(NC(=O)c2nc(-c3cc(F)ccc3F)sc2N)c1N1CC[C@@H](F)[C@@H](N)CC1` [Example 266, 5-amino-N-(5-((4S,5R)-4-amino-5-fluoroazepan-1-yl)-1-methyl-1H-pyrazol-4-yl)-2-(2,5-difluorophenyl)thiazole-4-carboxamide] was tested. Which Ki did it give?
The Ki was 0.253 nM.

For `Cn1ncc(NC(=O)c2nc(-c3ccccc3F)ccc2N)c1N1CCC(N)C(F)CC1` (single isomer, unassigned) [Example 246, 3-amino-N-(5-(4-amino-5-fluoroazepan-1-yl)-1-methyl-1H-pyrazol-4-yl)-6-(2-fluorophenyl)picolinamide], which Ki is on record?
Its Ki is 0.149 nM.

With `Cn1ncc(NC(=O)c2nc(-c3c(F)cncc3F)sc2N)c1N1CC[C@H](N)[C@@H](F)CC1` [Example 471, 5-amino-N-[5-[(4S,5S)-4-amino-5-fluoro-azepan-1-yl]-1-methyl-pyrazol-4-yl]-2-(3,5-difluoro-4-pyridyl)thiazole-4-carboxamide] as the compound, how does the Ki read?
The Ki was 0.242 nM.

`Cc1ccc(F)c(-c2nc(C(=O)Nc3cnn(C)c3N3CCNCC(F)(F)C3)c(N)s2)c1` [Example 105, 5-Amino-N-(5-(6,6-difluoro-1,4-diazepan-1-yl)-1-methyl-1H-pyrazol-4-yl)-2-(2-fluoro-5-methylphenyl)thiazole-4-carboxamide] was tested. Which Ki did it give?
Its Ki is 0.019 nM.

For `CCn1ncc(NC(=O)c2nc(-c3c(F)cccc3F)sc2N)c1N1CC[C@H](N)[C@H](OC)CC1` [Example 376, 5-amino-N-(5-((4S,5R)-4-amino-5-methoxyazepan-1-yl)-1-ethyl-1H-pyrazol-4-yl)-2-(2,6-difluorophenyl)thiazole-4-carboxamide], which Ki is on record?
The Ki was 0.223 nM.

Which Ki does the source give for `Cc1cc(-c2nc(C(=O)Nc3cnn(C)c3N3CC[C@@H](N)[C@H](F)CC3)c(N)s2)ccn1` [Example 431, 5-amino-N-[5-[(4R,5R)-4-amino-5-fluoro-azepan-1-yl]-1-methyl-pyrazol-4-yl]-2-(2-methyl-4-pyridyl)thiazole-4-carboxamide] here?
Its Ki is 1.04 nM.

Which Ki does the source give for `Cn1ncc(NC(=O)c2nc(-c3ccccc3F)ccc2N)c1N1CC[C@@H](N)CC(F)(F)C1` [Example 250, (R)-3-amino-N-(5-(5-amino-3,3-difluoroazepan-1-yl)-1-methyl-1H-pyrazol-4-yl)-6-(2-fluorophenyl)picolinamide] here?
The Ki was 0.03 nM.

For `Cc1ccc(F)c(-c2nc(C(=O)Nc3cnn(CC(F)F)c3N3CCCC(O)CC3)c(N)s2)c1` (centres unmarked) [Example 111, 5-Amino-N-(1-(2,2-difluoroethyl)-5-(4-hydroxyazepan-1-yl)-1H-pyrazol-4-yl)-2-(2-fluoro-5-methylphenyl)thiazole-4-carboxamide], which Ki is on record?
The Ki was 0.079 nM.

For `Cn1ncc(NC(=O)c2nc(-c3ccccc3F)sc2N)c1N1CCNCC2(CCO2)C1` (racemic) [Example 477, 5-amino-2-(2-fluorophenyl)-N-[1-methyl-5-(1-oxa-6,9-diazaspiro[3.6]decan-6-yl)pyrazol-4-yl]thiazole-4-carboxamide], which Ki is on record?
Its Ki is 0.188 nM.

How did the Ki turn out when `Cn1ncc(NC(=O)c2nc(-c3c(F)cccc3F)sc2N)c1N1CCC[C@H](N(CC2COC2)CC2COC2)CC1` [Example 343, 5-amino-N-[5-[(4S)-4-[bis(oxetan-3-ylmethyl)amino]azepan-1-yl]-1-methyl-pyrazol-4-yl]-2-(2,6-difluorophenyl)thiazole-4-carboxamide] was run?
The Ki was 0.962 nM.

With `Cn1ncc(NC(=O)c2nc(-c3c(F)cccc3F)sc2N)c1N1CCC(N)C2(CCO2)CC1` (single isomer, unassigned) [Example 497, 5-amino-N-[5-(5-amino-1-oxa-8-azaspiro[3.6]decan-8-yl)-1-methyl-pyrazol-4-yl]-2-(2,6-difluorophenyl)thiazole-4-carboxamide] as the compound, how does the Ki read?
The Ki was 0.268 nM.

How did the Ki turn out when `Cn1ncc(NC(=O)c2nc(-c3cncc(C#N)c3)sc2N)c1N1CC[C@@H](N)[C@H](F)CC1` [Example 444, 5-amino-N-[5-[(4R,5R)-4-amino-5-fluoro-azepan-1-yl]-1-methyl-pyrazol-4-yl]-2-(5-cyano-3-pyridyl)thiazole-4-carboxamide] was run?
The Ki was 35.4 nM.

How did the Ki turn out when `Nc1sc(-c2c(F)cccc2F)nc1C(=O)Nc1cnn(CC(F)F)c1N1CCCC[C@@H](N)C1` [Example 104, (R)-5-amino-N-(5-(3-aminoazepan-1-yl)-1-(2,2-difluoroethyl)-1H-pyrazol-4-yl)-2-(2,6-difluorophenyl)thiazole-4-carboxamide] was run?
Its Ki is 0.091 nM.

With `CCn1ncc(NC(=O)c2nc(-c3c(F)cccc3F)sc2N)c1N1CCC(N)C(F)CC1` (single isomer, unassigned) [Example 369, 5-amino-N-[5-(4-amino-5-fluoro-azepan-1-yl)-1-ethyl-pyrazol-4-yl]-2-(2,6-difluorophenyl)thiazole-4-carboxamide] as the compound, how does the Ki read?
The Ki was 0.178 nM.

For `Cn1cc(-c2nc(C(=O)Nc3cnn(C)c3N3CCC[C@H](N)CC3)c(N)s2)cn1` [Example 419, 5-amino-N-[5-[(4S)-4-aminoazepan-1-yl]-1-methyl-pyrazol-4-yl]-2-(1-methylpyrazol-4-yl)thiazole-4-carboxamide], which Ki is on record?
Its Ki is 0.785 nM.

`Cn1ncc(NC(=O)c2nc(-c3cncc(F)c3)sc2N)c1N1CCC[C@H](N)CC1` [Example 420, 5-amino-N-[5-[(4S)-4-aminoazepan-1-yl]-1-methyl-pyrazol-4-yl]-2-(5-fluoro-3-pyridyl)thiazole-4-carboxamide] was tested. Which Ki did it give?
Its Ki is 4.25 nM.

Which Ki does the source give for `Cc1cc(-c2nc(C(=O)Nc3cnn(C)c3N3CC[C@@H](N)[C@H](F)CC3)c(N)s2)cc(C)n1` [Example 443, 5-amino-N-[5-[(4R,5R)-4-amino-5-fluoro-azepan-1-yl]-1-methyl-pyrazol-4-yl]-2-(2,6-dimethyl-4-pyridyl)thiazole-4-carboxamide] here?
Its Ki is 2.54 nM.

With `Cc1ncccc1-c1nc(C(=O)Nc2cnn(C)c2N2CC[C@@H](N)[C@H](F)CC2)c(N)s1` [Example 430, 5-amino-N-[5-[(4R,5R)-4-amino-5-fluoro-azepan-1-yl]-1-methyl-pyrazol-4-yl]-2-(2-methyl-3-pyridyl)thiazole-4-carboxamide] as the compound, how does the Ki read?
The Ki was 1.17 nM.

For `Nc1sc(-c2cc(F)ccc2F)nc1C(=O)Nc1cnn(C2CC2)c1N1CCC(N)C(F)CC1` (centres unmarked) [Example 338, 5-amino-N-[5-(4-amino-5-fluoro-azepan-1-yl)-1-cyclopropyl-pyrazol-4-yl]-2-(2,5-difluorophenyl)thiazole-4-carboxamide], which Ki is on record?
Its Ki is 0.159 nM.

`Nc1sc(-c2c(F)cccc2F)nc1C(=O)Nc1cnn(CC(F)F)c1N1CCCC(O)CC1` (centres unmarked) [Example 110, 5-Amino-N-(1-(2,2-difluoroethyl)-5-(4-hydroxyazepan-1-yl)-1H-pyrazol-4-yl)-2-(2,6-difluorophenyl)thiazole-4-carboxamide] was tested. Which Ki did it give?
The Ki was 0.166 nM.

For `Cn1ncc(NC(=O)c2nc(-c3ccccc3F)sc2N)c1N1CCNC[C@]2(CCO2)C1` (single isomer, unassigned) [Example 481], which Ki is on record?
Its Ki is 0.496 nM.

`Cc1ccc(F)c(-c2nc(C(=O)Nc3cnn(C)c3N3CC[C@@H](N)[C@@H](F)CC3)c(N)s2)c1` [Example 265, 5-amino-N-(5-((4R,5S)-4-amino-5-fluoroazepan-1-yl)-1-methyl-1H-pyrazol-4-yl)-2-(2-fluoro-5-methylphenyl)thiazole-4-carboxamide] was tested. Which Ki did it give?
The Ki was 0.038 nM.
